Consider two molecules from patent publication US20220339257A1, “METHODS TO INCREASE THE SENSITIVITY AND REVERSING THE RESISTANCE TO DRUGS” (Biomarker Strategies, LLC, priority 2019, published 2022).

Holding throughout (type): cell-based
One assay relates to EGFR WT sample (H1581). Description: Immunocytochemistry biomarker staining. Conditions: erlotinib+EM2 combination; WT EGFR smoker samples; 72 hours. Here is the method:
Cells at the seeding density of 10,000 cells per well were plated in 8 chamber slides in complete RPMI culture medium for overnight. After 24h cells were treated with RPMI media without the serum along with selected dose of erlotinib+EM2 and kept for additional 72 hours in incubation condition set at 37° C. in a humidified atmosphere of 95% air and 5% CO2. The chamber slides were rinsed with PBS before performing ICC staining. An Ambay kit (Catalog #10011A) purchased from Ambay Immune Sensors and Controls, LLC (AISC) (MD, USA) was used to perform ICC staining as per the kit instructions and using poly-HRP from Biogenix (CA, USA) was used to enable signal amplification and detection of specific bound antibody targets. A respective isotype antibody control was be kept for each biomarker. Counterstaining was performed before mounting and analysis.

In a further assay the test system is BICR-16 cells. Description: Western blot of protein biomarkers. Conditions: IFN-γ (100 ng/mL)+TNF-α (10 ng/mL), 24 hours. Here is the method: (§1) MTA and EM effects on protein biomarker expression were measured by western blotting. For the assay cell lines (Ca9-22, PE/CA-PJ15, HTB-38, HPAF-II, CAL27, BICR-16, A-253, Calu-6, PC-9, H1838, RPMI-7951 and A7) were cultured and treated with doses of MTAs alone, EMs alone and in combination and then lysed for protein analysis. This method can readily be conducted under adherent or suspension conditions, manually or on automated instruments, such as SnapPath. A total of 0.3×10^6 cells per well were seeded in 6 well plates with 10% FBS-containing media and incubated for 24 hours. Cells were then treated with MTA and/or EM concentrations for 24 hours. For total protein extraction, briefly, each sample media was collected, and wells were washed with HMS, and the wash was combined with its respective media collection. Cells were then detached using Accutase solution and again collected in its respective sample media and another HMS well wash and collection was performed. All cell solutions were centrifuged, washed with ice-cold PBS, and centrifuged again. Cell pellets were lysed in 250 μL of ice-cold 1× lysis buffer with protease and phosphatase inhibitor cocktails and incubated for 10 minutes on ice. Lysates were clarified with a centrifugation (14,000 rpm) for 10 minutes at 4° C. Cell lysates were quantified using Bio-Rad DC Protein Assay (Bio-Rad Cat. #5000116).
(§2) For all western blots, an equal amount of protein (3-5 μg) was loaded into SDS-polyacrylamide gels (Mini-Protean TGX Precast Gel; Bio-Rad, e.g. 7.5%, Cat. #4561024; 10%, Cat. #4561035; 12%, Cat. #4561045; or 4-15%, Cat. #4561085). Proteins were separated at 215V for at least 30 minutes in 1× Tris/Glycine/SDS buffer (Bio-Rad Cat. #1610772) and transferred to PVDF membranes using a Trans-Blot Turbo (Bio-Rad Cat. #1704155) for 7 minutes in transfer buffer (Trans-Blot Turbo Transfer Kit, Bio-Rad Cat. #1704273). Blots were blocked at room temperature for 1 hour with 5% non-fat dry milk in tris-buffered saline with Tween 20 (TBST; 15 mM Tris-HCl, pH 7.5, 200mMNaCl and 0.1% Tween 20). Membranes were incubated with primary antibodies at 4° C. overnight and at room temperature for 1 hour the next day; all primary antibodies were diluted following manufacturer's specifications in TBST with either 5% BSA or 5% non-fat dry milk. Membranes were washed in TBST for 5 minutes, three times, and incubated with HRP-conjugated secondary antibodies diluted 1:5000 in TBST with 5% non-fat dry milk at room temperature for 1 hour (anti-rabbit IgG, Bio-Rad Cat. #1706515; or anti-mouse IgG, Bio-Rad Cat. #1706516). Membranes were then washed in TBST for 10 minutes, three times, and target proteins were identified using Clarity Western ECL Substrate (Bio-Rad Cat. #1705061) on autoradiography film (GenHunter Cat. #B581, Nashville, Tenn., USA). Other assay types, such as Luminex multiplexed immunoassays, ICC, IHC, flow cytometry, etc. can be used readily.
For orientation: Immunoblotting shows a protein as a band on a membrane.

A further assay relates to HTB-38 cells. Description: Western blot of protein biomarkers. The method, then:
as §1, §2

A further assay relates to PC-9 cells. Briefly: Western blot of protein biomarkers. Conditions: trametinib (100 nM)+TNF-α (10 ng/mL), 24 hours. The method, then: as §1, §2
In a further assay the test system is Ca9-22 cells. Briefly: Western blot of protein biomarkers. Conditions: compared to either alone. Here is the method:
as §1, §2

The next assay deals with PE/CA-PJ15 cells. Briefly: Western blot of protein biomarkers. Conditions: osimertinib (100 nM)+IFN-α (200 ng/mL). The method, then: as §1, §2
Setting [1] is: compared to either therapy alone.
Where [2] appears, read: osimertinib (1000 nM)+IFN-α (200 ng/mL).

For tumor necrosis factor-alpha [EM2], the “cell apoptosis (changes in nuclear staining of Bcl2, ICC)” value with EGFR WT sample (H1581) is reported as “promoted cell apoptosis”. The PARP cleavage result is “very strong PARP cleavage” in the assay with BICR-16 cells (compared to MTA and EM alone); “very strong PARP cleavage” with HTB-38 cells (IFN-γ (100 ng/mL)+TNF-α (10 ng/mL), 24 hours, compared to MTA and EM alone); “very strong PARP cleavage” in the assay on PC-9 cells (compared to MTA and EM alone). Further, in the assay with BICR-16 cells (compared to either alone), the “LC3II over LC3I expression” value is given as “marked increase in LC3II over LC3I expression”. Moreover, the “Ki67 degradation and/or fragmentation pattern” value was “marked increase in the distinct degradation and/or fragmentation pattern of Ki67” in the assay on BICR-16 cells (setting [1]); “marked increase in the distinct degradation and/or fragmentation pattern of Ki67” in the assay on HTB-38 cells (IFN-γ (100 ng/mL)+TNF-α (10 ng/mL), 24 hours, compared to either therapy alone); “marked increase in the distinct degradation and/or fragmentation pattern of Ki67” in the assay with PC-9 cells (setting [1]). Further, the LC3II expression result in the assay with HTB-38 cells (IFN-γ (100 ng/mL)+TNF-α) was “increased expression”. Also, the p62 expression entry with HTB-38 cells (IFN-γ (100 ng/mL)+TNF-α) is “increased expression”. Moreover, in the assay with PC-9 cells (compared to either MTA or EM alone), the “p-AKT (Ser473) expression” value is listed as “strong reduction in p-AKT (Ser473) expression”.

B1: interferon-alpha-1 (protein, UniProt P01562 24-189, looked up)
Interferon alpha-1/13: CDLPETHSLDNRRTLMLLAQMSRISPSSCLMDRHDFGFPQEEFDGNQFQKAPAISVLHELIQQIFNLFTTKDSSAAWDEDLLDKFCTELYQQLNDLEACVMQEERVGETPLMNADSILAVKKYFRRITLYLTEKKYSPCAWEVVRAEIMRSLSLSTNLQERLRRKE
notes: enhancer molecule, cytokine purchased from Sigma
B1: the “LC3II over LC3I expression” value in the assay on Ca9-22 cells (GSK-458 (10 nM)+IFN-α (200 ng/mL), 24 hours) is “marked increase in LC3II over LC3I expression”; with PE/CA-PJ15 cells (24 hours, compared to either alone) it was “marked increase in LC3II over LC3I expression”. In addition, in the assay with Ca9-22 cells (setting [2]), the LC3II expression result was “LC3II upregulation”. Moreover, the results for the p62 expression entry in the assay on Ca9-22 cells (setting [2]) and with PE/CA-PJ15 cells were “reduction in p62” and “increased expression”, respectively.
